Where a name gives a salt, the structure may show the parent alone. Read-outs that look alike come from different tables or passages of the source.
Assays:
[1] = test system: soi28 promoter; assay: soi28 promoter-controlled β-galactosidase expression (Example 7)
[2] = test system: mutant strains of Salmonella typhimurium; conditions: cited from earlier work
[3] = test system: sodA gene; conditions: cited from earlier work
[4] = test system: fepB promoter; assay: fepB promoter-controlled β-galactosidase expression (Example 7); conditions: 2,2'-dipyridyl 0-160 μM; FIG. 6
[5] = test system: sodA promoter
[6] = test system: sfiA promoter
[7] = test system: micF promoter; assay: micF promoter-lacZ induction (preferred kit, β-galactosidase)
[8] = test system: clpB promoter; conditions: 0.32 mg/ml
[9] = test system: dinD promoter; conditions: cited from earlier work
[10] = soi28 promoter-lacZ induction (preferred kit, β-galactosidase); conditions: promoter-lacz bacterial strain
[11] = in vitro; conditions: clpb promoter-lacz e. coli
[12] = micF promoter-lacZ induction (preferred kit, β-galactosidase); conditions: promoter-lacz bacterial strain
[13] = groE promoter-lacZ induction (preferred kit, β-galactosidase); conditions: groe promoter-lacz e. coli
[14] = test system: DNA strand breaks; conditions: cited from earlier work
[15] = test system: ada gene; conditions: cited from earlier work
[16] = test system: merR promoter; assay: merR promoter-lacZ induction (preferred kit, β-galactosidase)
[17] = test system: soi28 promoter; assay: soi28 promoter-lacZ induction (preferred kit, β-galactosidase)
[18] = test system: ndh promoter; assay: ndh promoter-controlled β-galactosidase expression (Example 7)
[19] = test system: dinD promoter
[20] = test system: micF gene; conditions: cited from earlier work
[21] = test system: nfo promoter; assay: nfo promoter-controlled β-galactosidase expression (Example 7)
[22] = test system: zwf promoter; assay: zwf promoter-lacZ induction (preferred kit, β-galactosidase); conditions: Escherichia coli, read-out: Fold Induction, zwf
[23] = test system: nfo gene; conditions: cited from earlier work
[24] = in vitro; conditions: dind promoter-lacz e. coli
[25] = test system: katG gene; conditions: cited from earlier work
[26] = test system: ahp gene; conditions: cited from earlier work
[27] = katG promoter-lacZ induction (preferred kit, β-galactosidase); conditions: promoter-lacz bacterial strain
[28] = test system: dinD promoter; assay: dinD promoter-controlled β-galactosidase expression (Example 7); conditions: for dinD controlled β-galactosidase expression: 5 μg/ml, 0 min 321
[29] = test system: adaA promoter; assay: adaA (ada-alkA) promoter-controlled β-galactosidase expression (Example 7)
[30] = test system: ada promoter; assay: ada promoter-lacZ induction (preferred kit, β-galactosidase); conditions: MMS 470 μM to 1880 μM; FIG. 9
[31] = test system: proU promoter; assay: proU promoter-controlled β-galactosidase expression (Example 7); conditions: NaCl 0-0.8M; FIG. 5
[32] = test system: soi17 promoter; assay: soi17 promoter-controlled β-galactosidase expression (Example 7); conditions: NaCl 0-0.8M; FIG. 5
[33] = test system: gsh gene; conditions: cited from earlier work
[34] = test system: zwf gene; conditions: cited from earlier work
[35] = nfo promoter-lacZ induction (preferred kit, β-galactosidase); conditions: nfo promoter-lacz e. coli
[36] = test system: topA promoter; assay: topA promoter-lacZ induction (preferred kit, β-galactosidase); conditions: Escherichia coli, read-out: Fold Induction, topA
[37] = test system: rdc promoter; conditions: cited from earlier work
[38] = 2,2'-dipyridyl 0-160 μM, FIG. 6

## CC1=CC(=O)c2c(O)cccc2C1=O [plumbagin]
[1]; plumbagin 0-160 μM, FIG. 4
  induction of soi28 promoter: cause induction of the soi28 promoter
[2]
  response in Ames Assay: neither compound produces a positive response
[3]
  sodA gene induction: strongly induced

## c1ccc(-c2ccccn2)nc1 [2,2'-dipyridyl]
[4]
  induction of fepB promoter (chelating metals): fepB induction
[5]; [38]
  induction of sodA promoter (superoxide formation): sodA induction
[6]; [38]
  effect on DNA replication (sfiA promoter): no effect on DNA replication (sfiA promoter)
[3]
  sodA gene induction: also induced

## O=[N+]([O-])c1ccc(F)c([N+](=O)[O-])c1 [Dinitrofluoro benzene]
[7]; 0.32 mg/ml
  Fold Induction, micF: 3.2 fold
[8]
  Fold Induction, clpB: 2 fold

## bleomycin
[9]
  dinD induction: Typical inducers of dinD

## ClC(Cl)Cl [Chloroform]
[10]
  fold induction: 2
[11]
  fold induction: 4.5

## CCCO [1-propanol]
[12]
  fold induction: 4
[13]
  fold induction: 1.5
[11]
  fold induction: 5.6

## O=C1O[C@H]([C@@H](O)CO)C(O)=C1O [Ascorbic acid]
[14]
  number of hydrogen peroxide induced DNA strand breaks: reduce the number of hydrogen peroxide induced DNA strand breaks

## CCOS(C)(=O)=O [EMS, ethlymethanosulfate]
[15]
  ada gene expression induction: induce ada gene expression

## O=C(O)CN(CCN(CC(=O)O)CC(=O)O)CC(=O)O [EDTA]
[3]
  sodA gene induction: also induced

## C[n+]1ccc(-c2cc[n+](C)cc2)cc1 [Paraquat]
[16]
  effect on merR promoter: apparent inhibition
[1]
  induction of soi28 promoter: cause induction of the soi28 promoter
[1]; 50 μM, 0 μM control 670
  soi28 induction, galactosidase activity: 2370 units
[17]
  induction of soi28 promoter: specific induction of the soi28 and micF promoters
[7]
  induction of micF promoter: specific induction of the soi28 and micF promoters
[18]
  induction of ndh promoter: negligible effect
[18]; 50 μM, 0 μM control 464
  ndh induction, galactosidase activity: 980 units
[19]
  effect on dinD promoter: apparent inhibition
[2]
  response in Ames Assay: neither compound produces a positive response
[20]
  micF gene induction: induced
[3]
  sodA gene induction: strongly induced
[21]
  induction of nfo promoter: induced the nfo promoter
[21]; 50 μM, 0 μM control 2952
  nfo induction, galactosidase activity: 8100 units
[22]
  fold induction at 8000 µg/mL: 3
[23]
  nfo induction: specifically induced

## OO [Hydrogen peroxide]
[24]
  fold induction: 3
[25]
  katG gene induction: can be induced
[9]
  dinD induction: does not respond to oxidative DNA damage, except when cells are exposed to extremely high concentrations of H2 O2
[26]
  ahp gene induction: induced
[27]
  fold induction: 2

## CC(C)(C)c1cc(O)ccc1O [Tert-butyl hydroquinone]
[12]
  fold induction at 2000 µM: 2.6
[11]
  fold induction at 2000 µM: 2.8

## Oc1ccccc1 [Phenol]
[13]
  fold induction: 2.2
[11]
  fold induction: 1.5

## COS(C)(=O)=O [Methyl Methane-sulfonate, methyl methanesulfonate]
[28]; MMS 0-40 nM, FIG. 3
  induction of dinD promoter (strand breaks): not via stand breaks (dinD promoter)
[29]; MMS 0-40 nM, FIG. 3
  induction of adaA promoter (DNA alkylation): induction of the adaA promoter
[30]
  induction of ada promoter: specifically induces the ada promoter
[21]; MMS 0-40 nM, FIG. 3
  induction of nfo promoter (oxygen-dependent damage): not oxygen-dependent (nfo promoter)
[15]
  ada gene expression induction: induce ada gene expression

## [Cl][Hg][Cl] [Mercuric chloride]
[16]; 2 ng/ml
  Fold Induction, merR: 27 fold
[16]; mercuric chloride, FIG. 10
  induction of merR promoter: specifically induces the merR promoter

## [Cl-].[Na+] [NaCl, sodium chloride]
[5]; NaCl 0-0.8M, FIG. 5
  induction of sodA promoter (superoxide formation): no induction of sodA or soi17
[31]
  induction of proU promoter: induces the proU promoter
[32]
  induction of soi17 promoter (superoxide formation): no induction of sodA or soi17

## CCN1C(=O)C=CC1=O [N-ethylmaleimide]
[33]
  gsh gene induction: induced

## nitric oxide
[34]
  zwf gene induction: induced

## C[S+](C)[O-] [DMSO]
[24]
  fold induction: 2.2
[11]
  fold induction: 2
[35]
  fold induction: 1.6
[36]
  fold induction at 25 %: 1.7

## CN(C)C=O [N,N Dimethyl formamide]
[12]
  fold induction: 3.3
[11]
  fold induction: 2.5
[22]
  fold induction at 0.8 %: 1.5

## c1cnc2c(c1)ccc1cccnc12 [1, 10-phenanthroline]
[3]
  sodA gene induction: also induced

## C[n+]1c2ccccc2nc2ccccc21 [phenazine methyl sulfate]
[3]
  sodA gene induction: strongly induced

## CN(C)c1ccc2nc3ccc(=[N+](C)C)cc-3sc2c1 [methylene blue]
[3]
  sodA gene induction: strongly induced

## CO[C@@]12[C@H](COC(N)=O)C3=C(C(=O)C(C)=C(N)C3=O)N1C[C@@H]1N[C@@H]12 [Mitomycin C]
[28]; 15 min exposure
  dinD controlled β-galactosidase expression: 350
[28]; 25 min exposure
  dinD controlled β-galactosidase expression: 1036
[28]; 35 min exposure
  dinD controlled β-galactosidase expression: 811
[28]; 55 min exposure
  dinD controlled β-galactosidase expression: 1204
[28]; Escherichia coli, 55 min, read-out: dinD promoter induction
  fold induction at 5 µg/mL: ~4
[9]
  dinD induction: Typical inducers of dinD

## O=[N+]([O-])c1cc[n+]([O-])c2ccccc12 [4-NQO, 4-nitroquinoline oxide]
[17]; 4-NQO, FIG. 11
  induction of soi28 promoter: to a lesser extent
[19]; 4-NQO, FIG. 11
  induction of dinD promoter: causes induction of the dinD promoter
[28]; 4-NQO 0-100 picomolar, FIG. 2
  induction of dinD promoter: induction of the sfiA and dinD promoters
[6]; 4-NQO 0-100 picomolar, FIG. 2
  induction of sfiA promoter: induction of the sfiA and dinD promoters
[29]; 4-NQO 0-100 picomolar, FIG. 2
  induction of adaA promoter (DNA alkylation): not DNA alkylation (adaA promoter)
[9]
  dinD induction: Typical inducers of dinD
[21]; 4-NQO 0-100 picomolar, FIG. 2
  induction of nfo promoter: minor, but dose-dependent induction

## COC1=C(N)C(=O)c2nc(-c3nc(C(=O)O)c(C)c(-c4ccc(OC)c(OC)c4O)c3N)ccc2C1=O [streptonigrin]
[3]
  sodA gene induction: strongly induced

## CC1=CC(=O)c2ccccc2C1=O [menadione]
[3]
  sodA gene induction: strongly induced
[23]
  nfo induction: specifically induced

## CCO [Ethanol]
[10]
  fold induction: 1.7
[12]
  fold induction: 2.5
[20]
  micF gene induction: also induced

## OCC(O)CS (stereo not drawn) [thioglycerol]
[37]
  rdc promoter induction: induced

— US5589337A (priority 1995, dated 1996)
